Test results as given in ChEMBL document CHEMBL1140742, “Discovery of novel chemotypes to a G-protein-coupled receptor through ligand-steered homology modeling and structure-based virtual screening” (J Med Chem, 2008).

These compounds were tested against T1, Melanin-concentrating hormone receptor 1 (Homo sapiens, UniProt Q99705) (assay: Displacement of [125I]MCH from human MCHR1 expressed in CHO cell membranes).
T1 sequence (Q99705 whole entry): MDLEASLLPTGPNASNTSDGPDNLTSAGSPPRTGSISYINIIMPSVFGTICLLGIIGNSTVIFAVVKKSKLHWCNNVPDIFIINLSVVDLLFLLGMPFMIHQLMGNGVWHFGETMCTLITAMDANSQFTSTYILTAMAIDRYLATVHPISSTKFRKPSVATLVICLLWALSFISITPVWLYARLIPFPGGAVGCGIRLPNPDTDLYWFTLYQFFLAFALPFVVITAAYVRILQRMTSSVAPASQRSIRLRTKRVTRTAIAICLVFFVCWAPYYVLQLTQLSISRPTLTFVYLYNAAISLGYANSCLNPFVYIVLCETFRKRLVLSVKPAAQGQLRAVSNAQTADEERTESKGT
Work on `CCN(CC)CCCn1c(-c2ccc(Br)cc2)cn2c3ccccc3nc12` yielded a Ki of 11.9 µM. `CCCCCCN(CS(=O)(=O)c1ccc(C)cc1)CS(=O)(=O)c1ccc(C)cc1` gave a Ki of 1.7 µM. For `Cc1ccc(S(=O)(=O)CN(Cc2ccccc2)CS(=O)(=O)c2ccc(C)cc2)cc1`, the Ki was 7.5 µM. `Cc1ccccc1Nc1nc(N)nc(CN(C)Cc2cccc(Cl)c2)n1` showed a Ki of 7.8 µM. `CC(C)N(CCCNC(=O)c1cc2sccc2n1C)Cc1ccccc1` showed a Ki of 20.9 µM. With `COc1ccc(/C=C2/SC(=S)N(CCCC(=O)OCCN(C)C)C2=O)cc1` the Ki was 8.1 µM. With `Cc1ccccc1SCN(CCc1ccccc1)CSc1ccccc1C` the Ki was 7.5 µM. `CCN(CC)Cc1cc(N=C2NS(=O)(=O)c3ccccc32)ccc1OC(=O)c1ccc(OC)cc1` was tested, and the Ki was 11.3 µM.

What follows are compounds tested against T1, Melanin-concentrating hormone receptor 1 (assay: Displacement of [125I]MCH from human MCHR1 expressed in CHO cell membranes at 5 ug/ml).
`CCOc1ccccc1Nc1nc(N)nc(CN(C)C2CCCCC2)n1` was tested, and the inhibition was 16%. In the case of `O=C(Nc1ccccc1)c1c(-c2ccccc2)n(Cc2ccccc2)c2nc3ccccc3n12`, the inhibition is reported as 15%. `COc1cc(C(=O)Oc2ccc(N(Cc3cccs3)C3=NS(=O)(=O)c4ccccc43)cc2)cc(OC)c1OC` was tested, and the inhibition was 10%. For `CCOc1ccc(Nc2nc(N)nc(CN(C)C3CCCCC3)n2)cc1`, the inhibition was 3%. `Cc1ccc(S(=O)(=O)CN(CS(=O)(=O)c2ccc(C)cc2)c2ccc(Br)cc2F)cc1` gave an inhibition of 10%. For `COc1ccc(Nc2nc(N)nc(CN(C)C3CCCCC3)n2)cc1`, the inhibition was 0%. For `COc1ccccc1CN(C(=O)c1cc2sccc2n1C)C1CC(C)(C)NC(C)(C)C1`, the inhibition was 3%. `CCCn1c(-c2ccc(-c3ccccc3)cc2)c(C(C)=O)n2c3ccccc3nc12` gave an inhibition of 18%. `COc1ccccc1Nc1nc(N)nc(CN(C)C2CCCCC2)n1` gave an inhibition of 0%. Compound `COc1ccc(-c2cn3c4ccccc4nc3n2CCCN2CCOCC2)cc1` has an inhibition of 0%. `COc1cc(CN(CCCn2ccnc2)C(=O)c2cc3sccc3n2C)cc(OC)c1` showed an inhibition of 0%. Compound `CCC(=O)Oc1ccc(NC2=NS(=O)(=O)c3ccccc32)cc1` has an inhibition of 31%. Compound `O=C(c1cc2sccc2n1Cc1ccc(F)cc1)N(CCCN1CCOCC1)Cc1cccnc1` has an inhibition of 44%. `CCOc1ccc(NC2=NS(=O)(=O)c3cc([N+](=O)[O-])ccc32)cc1` was tested, and the inhibition was 4%.
